According to patent EP0217372A2, “Polyoxygenated labdane derivatives, process for their preparation and their use as medicaments” (HOECHST AKTIENGESELLSCHAFT, priority 1985, dated 1987):
In brackets after ≈: the same amount, converted by molar mass. Where a name gives a salt, the structure may show the parent alone. Read-outs that look alike come from different tables or passages of the source.

What was measured:
Augeninnendruck (IOP) = experiment: Intraocular pressure in the conscious rabbit; assay type: in vivo, Kaninchen; conditions: for Senkung des IOP: percent decrease from baseline; for Dauer: duration of the IOP-lowering effect
Description: Messung des Augeninnendruckes am wachen Kaninchen
Für die Untersuchung wird ein männliches oder weibliches Kaninchen mit einem Gewicht von 2 bis 3 k^g ausgewählt. Der Augeninnendruck (IOP) wird nach vorheriger Hornhautanästhesie mit 2 % Novocain-Lösung mit einem Schioetz-Tonometer gemessen. Zur Herstellung einer 2 %igen wäßrigen Lösung wird eine Verbindung der Formel I unter Verwendung von stöchiometrischer wäßriger 0,1 n HCI-Lösung oder ein Salz einer solchen Verbindung direkt in Wasser gelöst. […] Der IOP wird in Abständen von 0,5, 1, 2, 3, 4 und 5 Stunden gemessen. Die prozentuale Abnahme des IOP wird anhand des Ausgangswertes berechnet.

Meerschweinchen-Vorhof = experiment: Electrically stimulated left atrium, contractile force; conditions: contractile force of electrically stimulated left atrium, recorded 7 to 10 min
Description: 2. Elektrisch stimulierter linker Vorhof
Es wird ein Meerschweinchen männlichen oder weiblichen Geschlechts mit einem Gewicht von 400 g getötet, das Herz entnommen und bei Zimmertemperatur in Ringerlösung eingebracht. Dann wird der linke Vorhof isoliert, an einem Organhalter befestigt und das Präparat in ein Organbad mit Ringerlösung von Zimmertemperatur gebracht. In das Organbad wird ein lebhafter Strom eines Gemisches von Kohlendioxid und Sauerstoff (95 % 02 und 5 % C02) geleitet. Dann wird der linke Vorhof elektrisch stimuliert. Anschließend wird aus einer der erfindungsgemäßen Verbindungen oder ih- rem Salz gegebenenfalls unter Verwendung von stöchiometrischer wäßriger 0,1 n HC1-Lösung eine wäßrige Lösung bekannter Konzentrationen hergestellt.
Diese Lösung wird dem Bad zugesetzt und die Kontraktionskraft des Vorhofes 7 bis 10 Minuten lang auf einem 4-Kanal-Kohden-Rekorder registriert. Die Wirkung wird aus den ermittelten Daten als EC50 berechnet angegeben.

[1] = tested on: Isoliertes Meerschweinchenherz; experiment: Isolated guinea pig heart (Langendorff method); set-up: species or system Meerschweinchen; conditions: Cavia porcellus; for activation at 0.01 mg: Dosis 10 µg injected into the aorta; for activation at 0.03 mg: Dosis 30 µg injected into the aorta
Description: 1. Isoliertes Meerschweinchenherz (Langendorff-Methode)
Es wird ein Meerschweinchen männlichen oder weiblichen Geschlechts mit einem Gewicht zwischen 300 und 400 g getötet und das Herz mit einem kleinen Teil der Aorta entnommen. Das Herz wird umgehend in einen Perfusionsapparat gebracht, in dem die Aorta auf der Glaskanüle fixiert wird. Die aus oxygenierter Ringerlösung bestehende Perfusionslösung wird bei konstantem Druck aus dem Behälter zugeführt, der durch aus dem Thermostat zirkulierendes Wasser auf 37°C angewärmt wird. Die zu untersuchenden Verbindungen der Erfindung werden zur Herstellung einer Lösung mit bekannter Konzentration unter Verwendung stöchiometrischer 0,1 n HC1 bzw. deren Salze direkt in Wasser gelöst. Die erhaltene Lösung wird durch eine Polyäthylenkanüle direkt in die Aorta injiziert und die Wirkungen auf die Kontraktionskraft, Herzfrequenz und Koronardurchblutung auf einem 3-Kanal-Physioscribe-Rekorder aufgezeichnet. Die prozentuale Zu- oder Abnahme der inotropen Wirkung wird nach dem intialen Ausgangswert berechnet.

Narkotisierter Hund = experiment: In vivo test in the anaesthetised dog (left ventricular dp/dt max); set-up: species or system Beagle-Hunde; conditions: injected into the femoral vein, pentobarbital anaesthesia; for ED50: Canis lupus familiaris, iv
Protocol: 3. In vivo-Tests am narkotisierten Hund
Beagle-Hunde beiderlei Geschlechts mit einem Gewicht zwischen 10 und 15 kg werden mit Na-Pentobarbitol (35 mg/kg, i.v.) narkotisiert. Nach Einführen eines Endotrachealtubus werden die Femoralarterie und -vene mit einer Kanüle zur Messung des Blutdrucks bzw. zur Verabreichung von Medikamenten versehen. Der Druck des linken Ventrikels wird mit Hilfe eines Millar-Katheters gemessen und dp/dt max wird berechnet mit einem Hugo-Sachs-Differentiometer. Die Herzfrequenz wird mit Hilfe eines Kardiotachometers aus ECG-Signalen bestimmt. Alle kontinuierlich gemessenen Parameter werden mit einem Hellige-Sechs-Kanal-Recorder aufgezeichnet.
Die zu untersuchenden erfindungsgemäßen Verbindungen werden in destilliertem Wasser gelöst. In allen Experimenten werden 1%ige Lösungen verwendet. Die Lösungen werden in die Femoralvene injiziert und die Dosis-Wirkung-Relation berechnet.

systolischer Blutdruck = experiment: Blood pressure lowering in conscious spontaneously hypertensive rats (tail cuff); assay type: in vivo, SH-Ratten; conditions: 25 mg/kg oral once daily for 5 days; difference from baseline, 2 hours after dosing
Description: Blutdrucksenkung bei wachen hypertonen Ratten
Die blutdrucksenkende Wirkung wird bei wachen Ratten mit spontaner Hyperonie (SH) ermittelt. Eingesetzt werden dazu männliche SH-Ratten (250 - 300 g, 12 - 16 Wochen alt) des Wistar-Okamoto-Stammes aus eigener Züchtung. Vor der Blutdruckmessung werden die Ratten 10 Minuten bei 37'C in einer Wärmekammer aufgewärmt. Der systolische Blutdruck wird bei den wachen Ratten mittels Schwanzmanschetten-Methode gemessen, wobei ein piezoelektrischer Kristall zur Anzeige des Druckpulses, ein aneroides Manometer zur Druckmessung und ein Kardioskop (BPL-India) zur Anzeige des Verschwindens und/oder Auftretens des Druckpulses verwendet wird.
Die zu testenden erfindungsgemäßen Verbindungen werden unter Verwendung von stöchiometrischer 0,1 n HCl-Lösung bzw. die Salze direkt in Wasser gelöst und in dieser Form den SH-Ratten 5 Tage lang einmal täglich in einer Dosierung von 25 mg/kg oral verabreicht. Eine Gruppe dient als Kontrolle und erhält das Vehikel. Der systolische Blutdruck wird vor der ersten Verabreichung des Medikamentes und 2 Stunden danach registriert. Eine Senkung des systolischen Blutdruckes ist die Differenz zwischen dem Blutdruck nach der Behandlung und dem Ausgangswert.

[2] = read-out: % Zunahme der Chronotropen Wirkung
[3] = read-out: % Zunahme der Koronardurchblutung
[4] = relative to initial baseline, read-out: % Zunahme der Inotropen Wirkung
[5] = Dosis 2 %, 100 µl instilled into one eye

Structure (SMILES) | EC50 (Meerschweinchen-Vorhof) | activation at 0.01 mg [1, 2] | activation at 0.01 mg [1, 3] | activation at 0.01 mg [1, 4] | further results
C=CC1(C)CC(=O)C2(O)C(C)(O1)C(OC(=O)C(C)N1CCSCC1)C(O)C1C(C)(C)CCC(OC(=O)C(C)N3CCSCC3)C12C (stereo not drawn) [6β-9α-Dihydroxy, 1α,7β-di(α'-thiomorpholinopropionyloxy)-8,13-epoxy-labd-14-en-one-dihydrochlorid-trihydrat] |  |  |  |  | Senkung des IOP (Augeninnendruck (IOP); Dosis 1 %): 19%; Dauer (Augeninnendruck (IOP); Dosis 1 %): 6 Std.
C=C[C@@]1(C)CC(=O)[C@]2(O)[C@@]3(C)[C@@H](O)CCC(C)(C)[C@@H]3[C@H](O)[C@H](OC(=O)C(C)N3CCOCC3)[C@@]2(C)O1 (stereo partly shown) [the 2nd table, row 3] |  |  |  |  | Meerschweinchen-Vorhof EC50 (Meerschweinchen-Vorhof): 0,266 µg/ml; Narkotisierter Hund dp/dt max ED50 (Narkotisierter Hund): 0,04 mg/kg; activation at 0.03 mg [1, 2]: 32%; activation at 0.03 mg [1, 3]: 44%; activation at 0.03 mg [1, 4]: 20%
C=CC1(C)CC(=O)C2(O)C(C)(O1)C(OC(=O)Cn1cnc3c1c(=O)n(C)c(=O)n3C)C(O)C1C(C)(C)CCC(O)C12C (stereo not shown) |  |  |  |  | Senkung des IOP (Augeninnendruck (IOP); [5]): 21%; Dauer (Augeninnendruck (IOP); Dosis 2 %): > 6 Std.
C=CC1(C)CC(=O)C2(O)C(C)(O1)C(O)C(O)C1C(C)(C)CCC(OC(=O)CN3CCCCC3)C12C (stereo not shown) |  |  |  |  | Senkung des IOP (Augeninnendruck (IOP); [5]): 18%; Dauer (Augeninnendruck (IOP); Dosis 2 %): 2 Std.
C=CC1(C)CC(=O)C2(O)C(C)(O1)C(OC(=O)CN1CCCCC1)C(O)C1C(C)(C)CCC(O)C12C (stereo not shown) |  |  |  |  | Senkung des systolischen Blutdruckes (systolischer Blutdruck): 35
C=C[C@@]1(C)CC(=O)[C@]2(O)[C@@]3(C)[C@@H](O)CCC(C)(C)[C@@H]3[C@H](OC(=O)C(C)N3CCOCC3)[C@H](O)[C@@]2(C)O1 (stereo partly shown) | 4.7 µg/mL (≈ 9.22 µM) | 20% | 11% | 45% | 
C=C[C@@]1(C)CC(=O)[C@]2(O)[C@@]3(C)[C@@H](O)CCC(C)(C)[C@@H]3[C@H](O)[C@H](OC(=O)C(C)N3CCOCC3)[C@@]2(C)O1 (stereo partly shown) [the 1st table, row 7] |  | 20% | -5% | 18% | Meerschweinchen-Vorhof EC50 (Meerschweinchen-Vorhof): 10 µg/mL; ED50 (Narkotisierter Hund): 0.04 mg/kg
C=CC1(C)CC(=O)C2(O)C(C)(O1)C(O)C(OC(=O)CN(C)C1CCCCC1)C1C(C)(C)CCC(O)C12C (stereo not shown) |  |  |  |  | Senkung des IOP (Augeninnendruck (IOP); [5]): 27.5%; Dauer (Augeninnendruck (IOP); Dosis 2 %): 6 Std.
C=CC1(C)CC(=O)C2(O)C(C)(O1)C(O)C(OC(=O)CN1CCCCC1)C1C(C)(C)CCC(O)C12C (stereo not shown) |  |  |  |  | Senkung des systolischen Blutdruckes (systolischer Blutdruck): 14

Further lines, with some results ahead:

EC50 (Meerschweinchen-Vorhof) | Structure (SMILES) | activation at 0.01 mg [1, 2] | activation at 0.01 mg [1, 3] | activation at 0.01 mg [1, 4] | further results
0.35 µg/mL (≈ 0.706 µM) | C=C[C@@]1(C)CC(=O)[C@]2(O)[C@@]3(C)[C@@H](O)CCC(C)(C)[C@@H]3[C@H](O)[C@H](OC(=O)CN3CCOCC3)[C@@]2(C)O1 | 35% | 100% | 37% | 
3 µg/mL (≈ 5.73 µM) | C=C[C@@]1(C)CC(=O)[C@]2(O)[C@@]3(C)[C@@H](O)CCC(C)(C)[C@@H]3[C@H](O)[C@H](OC(=O)CCCN3CCOCC3)[C@@]2(C)O1 |  |  |  | 
30 µg/mL (≈ 59.1 µM) | C=CC1(C)CC(=O)C2(O)C(C)(O1)C(O)C(OC(=O)CN1CCCC(C)C1)C1C(C)(C)CCC(O)C12C (stereo not shown) |  |  |  | 
1.9 µg/mL (≈ 3.74 µM) | C=CC1(C)CC(=O)C2(O)C(C)(O1)C(O)C(OC(=O)CN1CCCCCC1)C1C(C)(C)CCC(O)C12C (stereo not shown) |  |  |  | 
22 µg/mL (≈ 44.6 µM) | C=C[C@@]1(C)CC(=O)[C@]2(O)[C@@]3(C)[C@@H](O)CCC(C)(C)[C@@H]3[C@H](O)[C@H](OC(=O)CN3CCCCC3)[C@@]2(C)O1 | 1% | 31% | 18% | 
1.8 µg/mL (≈ 3.75 µM) | C=C[C@@]1(C)CC(=O)[C@]2(O)[C@@]3(C)[C@@H](O)CCC(C)(C)[C@@H]3[C@H](O)[C@H](OC(=O)CN3CCCC3)[C@@]2(C)O1 | 24% | 57% | 38% | ED50 (Narkotisierter Hund): 0.5 mg/kg
